Among the data in patent US7910780B2, “Method for purifying terephthalaldehyde” (LG Chem, Ltd., priority 2006, dated 2011) are solubility values, retold here.

Data set [1] is described as follows: physchem. Particulars: organic solvent or mixture.
The nature of data set [2]: Solubility of terephthalaldehyde and major impurities in p-xylene and DMSO. Conditions: p-xylene, organic solvent or mixture.

The term solubility denotes how much of the substance goes into solution per volume. `O=C(O)c1ccc(C(=O)O)cc1` [TPA, terephthalic acid]: the solubility in data set [1] (100 °C) is below 20000 µg/mL.
`O=Cc1ccc(C(=O)O)cc1` [4-CBA, 4-carboxybenzaldehyde]: the solubility in data set [2] (25 °C, in p-xylene (25° C.)) was below 2 mg/mL; in data set [2] (100 °C, in p-xylene (100° C.)) it was below 20 mg/mL.
As to `O=Cc1ccc(O)cc1` [4-HBA, 4-hydroxybenzaldehyde], the solubility is below 2000 µg/mL in data set [1] (25 °C) and below 20000 µg/mL in data set [1] (100 °C).
The matching figures for `Oc1ccc(O)cc1` [HQ, hydroquinone]: below 5000 µg/mL and below 5000 µg/mL.
